Results published in US20210032257A1, “(E)-1-(4-(DIMETHYLAMINO)BUT-2-ENOYL)PYRROLIDIN-3-YL 4-((3-ISOPROPYL-5-METHYLPYRAZOLO[1,5-A]PYRIMIDIN-7-YL)AMINO)PIPERIDINE-1-CARBOXYLATE FOR INHIBITING CDK7” (Eli Lilly and Company, priority 2017, published 2021).

Key:
Assay in all cases: Biomarker study proliferation (CellTiter-Glo)
Assay type in all cases: cell-based
[1] = test system: MX1
Procedure, shortened: (§1)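 Ten concentrations, threefold apart, starting from a 10 mM DMSO working stock, are applied to cells seeded at 5000/well. Exposure lasts 7 days at 37 °C, 5% CO2, and viability is read by luminescence.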

[2] = test system: NCIH2122
Procedure, shortened: as §1

[3] = test system: PATU8988T
Procedure, shortened: as §1

[4] = test system: BT20
Procedure, shortened: as §1

[5] = test system: PANC1
Procedure, shortened: as §1

[6] = test system: MHCC97L
Procedure, shortened: as §1

[7] = test system: HS766T
Procedure, shortened: as §1

[8] = test system: SW780
Procedure, shortened: as §1

[9] = test system: COLO320
Procedure, shortened: as §1

[10] = test system: 22RV1
Procedure, shortened: as §1

[11] = test system: KLE
Procedure, shortened: as §1

[12] = test system: NCIH2081
Procedure, shortened: as §1

[13] = test system: COLO201
Procedure, shortened: as §1

[14] = test system: DMS79
Procedure, shortened: as §1

[15] = test system: NCIH2228
Procedure, shortened: as §1

[16] = test system: SW837
Procedure, shortened: as §1

Cc1cc(NC2CCN(C(=O)O[C@H]3CCN(C(=O)/C=C/CN(C)C)C3)CC2)n2ncc(C(C)C)c2n1 [Example 1, [(3S)-1-[(E)-4-(dimethylamino)but-2-enoyl]pyrrolidin-3-yl] 4-[(3-isopropyl-5-methyl-pyrazolo[1,5-a]pyrimidin-7-yl)amino]piperidine-1-carboxylate]
IC50 ([1]; Homo sapiens, MX1, 168 h, read-out: Anti-proliferation effect IC50): 45 nM
Anti-proliferation effect % Inh. ([1]; MX1, BREAST, 7 days): 72%
Anti-proliferation effect Outcome ([1]; MX1, BREAST, 7 days): Cytotoxic (cytotoxic (IC50<1 μM and % inhibition ≥70%))
IC50 ([2]; Homo sapiens, NCI-H2122, 168 h, read-out: Anti-proliferation effect IC50): 78 nM
Anti-proliferation effect % Inh. ([2]; NCIH2122, LUNG, 7 days): 85%
Anti-proliferation effect Outcome ([2]; NCIH2122, LUNG, 7 days): Cytotoxic (cytotoxic (IC50<1 μM and % inhibition ≥70%))
IC50 ([3]; Homo sapiens, PaTu 8988t, 168 h, read-out: Anti-proliferation effect IC50): 201 nM
Anti-proliferation effect % Inh. ([3]; PATU8988T, PANCREAS, 7 days): 55%
Anti-proliferation effect Outcome ([3]; PATU8988T, PANCREAS, 7 days): Cytostatic (cytostatic (IC50<1 μM and % inhibition <70%))
Anti-proliferation effect % Inh. ([4]; BT20, BREAST, 7 days): 45%
Anti-proliferation effect Outcome ([4]; BT20, BREAST, 7 days): Cytostatic (cytostatic (IC50<1 μM and % inhibition <70%))
IC50 ([4]; Homo sapiens, BT-20, 168 h, read-out: Anti-proliferation effect IC50): 373 nM
IC50 ([5]; Homo sapiens, PANC-1, 168 h, read-out: Anti-proliferation effect IC50): 71 nM
Anti-proliferation effect % Inh. ([5]; PANC1, PANCREAS, 7 days): 47%
Anti-proliferation effect Outcome ([5]; PANC1, PANCREAS, 7 days): Cytostatic (cytostatic (IC50<1 μM and % inhibition <70%))
IC50 ([6]; 168 h, read-out: Anti-proliferation effect IC50): 526 nM
Anti-proliferation effect % Inh. ([6]; LIVER, 7 days): 45%
Anti-proliferation effect Outcome ([6]; LIVER, 7 days): Cytostatic (cytostatic (IC50<1 μM and % inhibition <70%))
Anti-proliferation effect % Inh. ([7]; HS766T, PANCREAS, 7 days): 72%
Anti-proliferation effect Outcome ([7]; HS766T, PANCREAS, 7 days): Cytotoxic (cytotoxic (IC50<1 μM and % inhibition ≥70%))
IC50 ([7]; Hs766T, 168 h, read-out: Anti-proliferation effect IC50): 62 nM
IC50 ([8]; Homo sapiens, SW780, 168 h, read-out: Anti-proliferation effect IC50): 74 nM
Anti-proliferation effect % Inh. ([8]; SW780, URINARY, 7 days): 68%
Anti-proliferation effect Outcome ([8]; SW780, URINARY, 7 days): Cytostatic (cytostatic (IC50<1 μM and % inhibition <70%))
Anti-proliferation effect % Inh. ([9]; COLO320, INTESTINE, 7 days): 73%
Anti-proliferation effect Outcome ([9]; COLO320, INTESTINE, 7 days): Cytotoxic (cytotoxic (IC50<1 μM and % inhibition ≥70%))
IC50 ([9]; Homo sapiens, COLO 320, 168 h, read-out: Anti-proliferation effect IC50): 189 nM
Anti-proliferation effect % Inh. ([10]; 22RV1, PROSTATE, 7 days): 77%
Anti-proliferation effect Outcome ([10]; 22RV1, PROSTATE, 7 days): Cytotoxic (cytotoxic (IC50<1 μM and % inhibition ≥70%))
IC50 ([10]; Homo sapiens, 22Rv1, 168 h, read-out: Anti-proliferation effect IC50): 28 nM
Anti-proliferation effect % Inh. ([11]; ENDOMETRIUM, 7 days): 65%
Anti-proliferation effect Outcome ([11]; ENDOMETRIUM, 7 days): Cytostatic (cytostatic (IC50<1 μM and % inhibition <70%))
IC50 ([11]; Homo sapiens, 168 h, read-out: Anti-proliferation effect IC50): 28 nM
IC50 ([12]; Homo sapiens, NCI-H2081, 168 h, read-out: Anti-proliferation effect IC50): 442 nM
Anti-proliferation effect % Inh. ([12]; NCIH2081, LUNG, 7 days): 44%
Anti-proliferation effect Outcome ([12]; NCIH2081, LUNG, 7 days): Cytostatic (cytostatic (IC50<1 μM and % inhibition <70%))
Anti-proliferation effect % Inh. ([13]; COLO201, INTESTINE, 7 days): 61%
Anti-proliferation effect Outcome ([13]; COLO201, INTESTINE, 7 days): Cytostatic (cytostatic (IC50<1 μM and % inhibition <70%))
IC50 ([13]; Homo sapiens, COLO 201, 168 h, read-out: Anti-proliferation effect IC50): 123 nM
Anti-proliferation effect % Inh. ([14]; DMS79, LUNG, 7 days): 50%
Anti-proliferation effect Outcome ([14]; DMS79, LUNG, 7 days): Cytostatic (cytostatic (IC50<1 μM and % inhibition <70%))
IC50 ([14]; Homo sapiens, DMS-79, 168 h, read-out: Anti-proliferation effect IC50): 354 nM
IC50 ([15]; Homo sapiens, NCI-H2228, 168 h, read-out: Anti-proliferation effect IC50): 276 nM
Anti-proliferation effect % Inh. ([15]; NCIH2228, LUNG, 7 days): 57%
Anti-proliferation effect Outcome ([15]; NCIH2228, LUNG, 7 days): Cytostatic (cytostatic (IC50<1 μM and % inhibition <70%))
IC50 ([16]; Homo sapiens, SW837, 168 h, read-out: Anti-proliferation effect IC50): 68 nM
Anti-proliferation effect % Inh. ([16]; SW837, INTESTINE, 7 days): 55%
Anti-proliferation effect Outcome ([16]; SW837, INTESTINE, 7 days): Cytostatic (cytostatic (IC50<1 μM and % inhibition <70%))
